Experimental data published in US20250320190A1, “Novel Inhibitors of Leucine Carboxyl Methyltransferase-1 (LCMT-1) and Methods of Use Thereof” (Temple University-Of The Commonwealth System of Higher …, priority 2024, published 2025).

Key:
[1] = test system: THP-1 cells; assay: Radiosensitization assay (Ghost Dye 710 flow cytometry); format: cell-based, human; conditions: 10 Grays
Experimental: (§1) Jurkat and THP-1 cells were seeded in 6-well plates as described. After 24 hours LCMT-li was added at various concentrations as described. After 3 hours, cells were irradiated at 10 Grays. After 24 hours, cell viability was assessed with Ghost Dye™ 710 staining and flow cytometry as described.

[2] = test system: Jurkat cells; assay: as above; format: cell-based, human; conditions: 10 Grays
Experimental: as §1

[3] = test system: MDA-MB-231 cells; assay: Cytotoxicity assay (calcein-AM); format: cell-based, human; conditions: MDA-MB-231, 48 hours
Experimental: (§2) HS-5, HEK-293, MCF7, MDA-MB-231 and Rosi cells were seeded in 96-well optical bottom tissue culture plates (Corning, New York) at a density of 2.5×10^3 cells/well. After 24 hours, the media were changed to media containing LB-100 (Cayman Chemical Company, Ann Arbor, Michigan) or Compound 2 at various concentrations (50-0.31 μM). Control cells were given fresh media. After 48 hours the media were aspirated and plates were washed with warmed Dulbecco's phosphate-buffered saline (DPBS) with calcium and magnesium (Sigma-Aldrich, catalog #D1283). Cells were stained with 3 μM calcein-AM (AAT Bioquest, Pleasanton, California, catalog #22002) in DPBS for 30 minutes in the dark at 37° C. Plates were immediately read with a Biotek fluorescent plate reader (excitation 485 nm, emission 520 nm). The cytotoxicity assays were performed at least three times, each time with six replicates per condition.

[4] = test system: MCF7 cells; assay: Cytotoxicity assay (calcein-AM); format: cell-based, human; conditions: MCF7, 48 hours
Experimental: as §2

[5] = test system: HEK-293 cells transfected with pCMV6-LCMT1; assay: Cytotoxicity assay in LCMT-1-transfected cells; format: cell-based; conditions: HEK-293 pCMV6-LCMT1 vs HEK-293; 0.78-50 μM; 48 hours
Experimental: A mammalian LCMT-1 plasmid expression vector was obtained from Origene (pCMV6-LCMT1, catalog #RC200018). HEK-293 cells were transfected with the plasmid using PolyJet™ transfection reagent (SignaGen Laboratories, Frederick, Maryland) according to manufacturer's directions. After 5 hours, the medium was changed. The next day, the transfected cells were seeded in 96-well optical bottom tissue culture plates for cytotoxicity assays as previously described. After 24 hours, the medium was changed to medium containing Compound 2 at various concentrations (0.78-50 μM), or fresh medium with the carrier (dimethyl sulfoxide) in the case of the control. After 48 hours, cells were stained with calcein-AM and fluorescence was measured.

[6] = test system: THP-1 cells; assay: Cytotoxicity assay (Ghost Dye 710 flow cytometry); format: cell-based; conditions: Homo sapiens, 48 hours
Experimental: (§3) Jurkat and THP-1 cells were seeded in 6-well plates at a density of 2.5×10^5 cells/mL. After 24 hours LCMT-li was added at various concentrations. After 48 hours, cells were pelleted and washed twice with ice-cold phosphate-buffered saline (PBS). Cells were stained with Ghost Dye™ 710 (Cytek®, Bethesda, Maryland) viability dye, 0.1 μL/mL in PBS on ice in the dark for 30 minutes. Cells were pelleted and washed twice with ice-cold PBS with 10% FBS. Cells were pelleted and fixed with 4% formaldehyde in PBS on ice for 15 minutes. Cells were pelleted and resuspended in PBS with 5% bovine serum albumin (BSA). Cells were analyzed with a Becton-Dickinson FACSymphony™ flow cytometer with at least 3 replicates; 3×10^4 cells were analyzed with each replicate for statistical significance.
(§4) Statistical analyses were performed with GraphPad Prism software (version 10.4.1). Effective concentrations that inhibited 50% of cells (EC50, log agonist versus response) were estimated with nonlinear fit curves. Absorbance values for cytotoxity assays and relative densities for Western blot assays were compared using Kruskal-Wallis analyses of variance with Dunn's correction for multiple comparisons. For flow cytometric analyses, two-way analyses of variance with Tukey's correction for multiple comparisons were used.

[7] = test system: Jurkat cells; assay: Cytotoxicity assay (Ghost Dye 710 flow cytometry); format: cell-based; conditions: Homo sapiens, 48 hours
Experimental: as §3, §4

[8] = test system: UM-SCC-12 cells; assay: Western blots (pMLKL, ACSL4) with and without irradiation; format: cell-based, human; conditions: LCMT-li alone
Experimental: (§5) To better understand cellular outcomes associated with combining LCMT-li with radiotherapy (Adjemian, S. et al., 2020, Cell Death Dis 11(11): 1003), SCC-15, SCC-25, UM-SCC-12, UM-SCC-14a and UM-SCC-49 cells were treated with LCMT-li, radiotherapy or both as described for Annexin V assays. UM-SCC-69 cells were not used for immunoblots because insufficient numbers of cells survived irradiation to obtain sufficient lysates. After 24 hours, cells were lysed in radioimmunoprecipitation assay buffer containing protease inhibitors (Boster Bio, Pleasanton, California, catalog #AR1182-1) and phosphatase inhibitors (Santa Cruz Biotechnology catalog #sc-45044 and #sc-45045). Protein concentrations were measured with a bicinchoninic acid assay (G-Biosciences, Saint Louis, Missouri). Fifty micrograms of each lysate were used for bis-tris polyacrylamide gel electrophoresis. Resolved lysates were transferred to nitrocellulose membranes. Membranes were blocked with TBS with 5% bovine serum albumin before incubation with primary antibodies.
(§6) The anti-phospho-mixed lineage kinase domain like pseudokinase (pMLKL) antibody was obtained from R&D Systems (Minneapolis, Minnesota, catalog #MAB9187-100, 1:1,000 dilution). Antibodies obtained from Proteintech (Rosemont, Illinois) included anti-MLKL (catalog #66675-1-Ig, 1:5,000 dilution) and anti-β-actin (catalog #66009-1-Ig, 1:50,000 dilution). The anti-long-chain-fatty-acid-Coenzyme A ligase 4 (ACSL4) antibody was obtained from Santa Cruz Biotechnology (Dallas, Texas, catalog #sc-365230, 1:1,000 dilution). Appropriate IR-dye secondary antibodies obtained from Jackson ImmunoResearch Laboratories (West Grove, Pennsylvania) were used (Alexa Fluor® 790-conjugated anti-mouse (catalog #115-655-146, 1:50,000 dilution), Alexa Fluor® 680-conjugated anti-mouse (catalog #115-625-146, 1:50,000 dilution), and Alexa Fluor® 680-conjugated anti-rabbit (catalog #115-625-144, 1:50,000 dilution). Band densities were normalized to β-actin, the endogenous control. Twelve replicates were used for statistical analyses.

[9] = test system: SCC-15 cells; assay: as above; format: cell-based, human; conditions: alone or with irradiation
Experimental: as §5, §6

[10] = test system: SCC-25 cells; assay: as above; format: cell-based, human; conditions: alone and in combination with irradiation
Experimental: as §5, §6

[11] = Homo sapiens, read-out: Log [μM] EC50 (converted)

COC(=O)c1c(NC(=O)c2ccccc2C)sc(C(=O)Nc2cccc(C)c2)c1C [Compound 2, methyl 4-methyl-2-[(2-methylbenzoyl)amino]-5-[[(3-methylphenyl)amino]carbonyl]-3-thiophenecarboxylate]
radiosensitization [1]: demonstrated LCMT-li radiosensitization
radiosensitization [2]: did not demonstrate radiosensitization
EC50 [3, 11]: 3.89 µM
concentration at which survival was significantly inhibited [3]: 25 µM
EC50 [4, 11]: 2.24 µM
inhibition of survival ([4]; concentrations tested 50-0.31 μM): Neither LB-100 nor Compound 2 significantly inhibited survival
effect of LCMT-1 overexpression on survival in the presence of Compound 2 [5]: significantly increased survival
EC50 [6]: 10.4 µM
EC50 [7]: 224 µM
necroptosis (pMLKL) and ferroptosis (ACSL4) [8]: increased necroptosis and ferroptosis
necroptosis (pMLKL) and ferroptosis (ACSL4) [9]: did not induce necroptosis or ferroptosis
necroptosis (pMLKL expression) [10]: increased necroptosis
